Several values for one entry are separate records, joined by “and”; a condition that tells them apart may be missing. Equal values may be shown once.
How the values were obtained:
[1] = tested on: H460 (large cell carcinoma) cells; test: In vitro cell viability assay, H460 cells; assay type: cell-based, human; conditions: cell line H460; HSV-1716 at an MOI of 0.1, mitomycin C at 0.1 micromolar
Experimental: Individual chemotherapeutic agents were then added to selected wells.
Each treatment experiment was performed at least twice.

H460 tumors = test: In vivo xenograft flank model; set-up: species or system SCID mice; conditions: 22 days after injection of H460 cells
Experimental: The combined effects of mitomycin C and HSV-1716 using NSCLC tumors was assessed in vivo as follows. Cells of line H460 were implanted subcutaneously in the flanks of severe combined immunodeficient (SCID) mice. […] HSV-1716 was injected directly into individual tumors at a dose of 4×10^6 plaque forming units (pfu) in 200 microliters of medium. Control mice were injected with medium alone. Twenty-four hours later, 0.17 milligrams per kilogram body weight mitomycin C or an equivalent amount of PBS was administered to separate groups of HSV-treated and control mice. Tumor volume was estimated in all mice at regular intervals. Tumor volume in cubic millimeters was estimated using the formula
where TLmm was tumor length in millimeters and TWmm was tumor width in millimeters. Tumor growth curves were generated using the estimated values for tumor volume. After a period of 3-4 weeks, mice were sacrificed and their tumors were weighed.
In order to assess the oncolytic effect of mitomycin C in combination with HSV-1716, a murine xenograft model was used. […] These doses were designated ‘sufficient doses.’ H460 tumor cells were injected into the flanks of SCID mice. […] At that time, about 4×10^6 pfu of HSV-1716 or an equivalent volume of culture medium was injected into individual tumors. […]

HSV-1716 in A549 cells = test: One step growth curve, A549 cells; assay type: cell-based, herpes simplex virus type 1; conditions: cell line A549; low dose mitomycin C (0.1 micromolar)
HSV-1716 in H460 cells = test: One step growth curve, H460 cells (black plaque assay); assay type: cell-based, herpes simplex virus type 1; conditions: for burst size of HSV-1716: H460, MOI 0.1
Experimental: H460 cells were incubated overnight in six-well plates at a density of about 300,000 cells per well under standard culture condition. Following this incubation, the cells were infected with HSV-1716 at an MOI of 0.1 pfu. In a parallel experiment with five different experimental arms, the following procedures were performed. In the first and second arms, the cells were incubated in the presence of 0.1 micromolar mitomycin C or an equivalent additional volume of culture medium. Mediun or medium containing mitomycin C was added to the wells for 3 hours, either immediately before (in the first arm) or immediately following (in the second arm) infection of the cells with HSV-1716. In the other three arms, medium containing 0.1, 1.0, or 3.0 micromolar mitomycin C was added to the wells for 48 hours following infection of the cells with HSV-1716.
Cells were harvested from individual wells 1, 6, 19, 24, or 48 hours following infection. Cells were harvested by scraping cells from the walls of their well into the medium contained within the well. Harvested cells were stored at −80° C. Cell samples were titered by black plaque assay using baby hamster kidney cell (BHK) monolayers as described (Kucharczuk et al., 1997, Cancer Res. 57:466-471).
In order to examine what effect mitomycin C might have on viral replication, one step growth curve experiments were performed. H460 cells were infected with HSV-1716 at an MOI of 0.1, and then 0.1 or 1.0 or 3.0 micromolar mitomycin C was added to the cell culture medium. At selected times, cells were harvested and titered by black plaque assay as described herein. […] Addition of 1.0 or 3.0 micromolar mitomycin C for 48 hours after infection reduced burst size (13.7 and 0.2, respectively).

Question: Which results are given for `CO[C@@]12[C@H](COC(N)=O)C3=C(C(=O)C(C)=C(N)C3=O)N1C[C@@H]1N[C@@H]12` [mitomycin C]?
Answer: cell survival [1]: 96.7%; final mean tumor burden (tumor weight) (H460 tumors; HSV-1716 4×10^6 pfu intratumoral day 7, mitomycin C 0.17 mg/kg i.v. day 8, n=14): 1.122±0.070 grams; reduction of tumor burden relative to the control (H460 tumors; HSV-1716 4×10^6 pfu intratumoral, mitomycin C 0.17 mg/kg i.v.): 20.2% and 21.8%; effect on burst size of HSV-1716 (HSV-1716 in A549 cells): Neither Augmented nor Reduced; burst size of HSV-1716 (HSV-1716 in H460 cells; 1.0 micromolar mitomycin C for 48 hours after infection): 13.7; burst size of HSV-1716 (HSV-1716 in H460 cells; 3.0 micromolar mitomycin C for 48 hours after infection): 0.2; burst size of HSV-1716 (HSV-1716 in H460 cells; post-treatment with 0.1 micromolar mitomycin C for 3 hours): 57.1; burst size of HSV-1716 (HSV-1716 in H460 cells; post-treatment with 0.1 micromolar mitomycin C for 48 hours): 53.3; burst size of HSV-1716 (HSV-1716 in H460 cells; pre-treatment with 0.1 micromolar mitomycin C for 3 hours): 42.1; effect on burst size of HSV-1716 (HSV-1716 in H460 cells; cell line H460, low dose mitomycin C (0.1 micromolar)): Neither Augmented nor Reduced
